{
  "source": "patent US11179361B2",
  "about": "“Methods of quantifying N2-(1-carboxyethyl)-2′-deoxy-guanosine (CEdG) and synthesis of oligonucleotides containing CEdG” (CITY OF HOPE, priority 2008, dated 2021)",
  "key": {"[1]": {"assay": "Stability of CEdG to acid-catalyzed depurination and sidechain isomerization", "details": "37° C.; for racemization of the sidechain stereocenter / interconversion of isomers: acidic hydrolysis, 1 M AcOH", "method": "(§2) A 1.25 mM solution of CEdG-A, B or dG in 100 μL of 1M AcOH (pH 2.4) was stirred at 37° C. Aliquots (10 μl) were removed periodically and added to 40 μL of 2M TEAA (pH 7.0). HPLC product analyses were performed using an Alltech HS HyperPrep 100 BDS C18 8μ column. A gradient of 0 to 4% CH3CN over 5 min was followed by 6.5% CH3CN over 30 min. TEAA (pH 7) was kept constant at 50 mM. The ratio of free base (CEGuanine or Guanine) to intact nucleoside (CEdG or dG) was calculated by integration of the corresponding HPLC peaks (see inset in FIG. 4).\n(§3) Purified stereoisomers of synthetic CEdG were subjected to acidic conditions (1 M AcOH at 37° C.) and the extent of released free base and diastereomer interconversion was monitored by HPLC as a function of time."}, "calf thymus DNA": {"system": "calf thymus DNA", "assay": "Artifactual CEdG formation during DNA workup with carbonyl scavenger (calf thymus DNA)", "description": "(§1) Calf thymus or tissue-extracted DNA (100 μg) was dissolved in 80 μL of autoclaved 18.2 MΩ H2O containing 20 μL of sodium acetate (100 mM, pH 5.5), 20 μL of 1×TBE, 1.5 μL of 50 mM ZnCl2, and 2.37 μL of a 100 mM AG or D-P stock solution. DNA was denatured at 95° C. for 5 min on a PCR heating block and then brought to 4° C. for 5 min. After equilibration to 45° C., 1.5 μL of 10 U/μL nuclease P1 was added. Alkaline phosphatase (4 μL of 8 U/μL), 1 U of bovine phosphodiesterase, and 14 μL of 100 mM CaCl2 were added after 1 hour, and the hydrolysis/dephosphorylation was continued for another 7 hours. DNA concentrations were determined by UV spectroscopy (1 OD260=50 μg/ml) and samples were stored at −80° C. prior to MS analyses. A 5 μL aliquot of digest was diluted to 200 μL and used for quantitation of 2′-deoxyguanosine by HPLC integration using a Beckman C18 reverse phase (25 cm×4.6 mm) column (Fullerton, Calif.). Separation was achieved isocratically using a mobile phase of 6% MeOH, 0.1% acetic acid in water.\nCommercial grade calf thymus DNA was used as a model substrate for developing a protocol for CEdG quantitation in double-stranded DNA. […] Concentrations of AG from 0.5 to 50 mM were added prior to workup, and CEdG levels were measured in order to determine the optimal concentration required to achieve stable, reproducible levels. […]"}, "[2]": {"system": "DNA extracted from breast tumor or adjacent tissue", "assay": "Artifactual CEdG formation during DNA isolation from human breast tumor and adjacent tissue with carbonyl scavenger", "details": "10 mM D-penicillamine in two aliquots during cell lysis/DNA isolation and hydrolysis/dephosphorylation", "description": "Breast tumor and adjacent normal tissue were obtained from the frozen tumor bank of the City of Hope Pathology Core. A pea-sized section (˜100 mg) of tissue was minced and suspended in 1.2 mL of digestion buffer (100 mM NaCl, 10 mM Tris HCl, pH 8, 25 mM EDTA, pH 8, 0.5% SDS, 0.2 mg/mL proteinase K, 10 mM D-penicillamine) and incubated at 50° C. in a water bath for 12-18 h. DNA was then extracted using an equivalent volume of phenol/chloroform/isoamyl alcohol (25:24:1). The aqueous fraction was separated and 0.5 volumes of ammonium acetate and 2 volumes of 100% ethanol were added. The DNA was spooled, washed twice with 70% ethanol, pelleted, and resuspended in autoclaved 18.2 MΩ water. The enzymatic hydrolysis was carried out as described above."}, "urinary CEdG": {"system": "urinary CEdG", "assay": "Urinary CEdG measurement in type 1 (streptozoticin) diabetic rats given LR-90", "assay_type": "in vivo, Sprague-Dawley rats", "description": "All animal studies were carried out in compliance with the policies outlined in NIH Publication No. 85-23 “Guide for the Care and Use of Laboratory Animals.” Male Sprague-Dawley rats were rendered diabetic by injection of streptozoticin and maintained as previously described.^18 AGE inhibitor LR-90 was administered ad libitum at concentrations ranging from 2.5-50 mg/L. Rats were housed in metabolic cages and urine was collected over a 24 hour period with several drops of toluene to inhibit microbial growth. Urine samples were stored at −80° C. prior to LC-MS/MS analysis for CEdG. The data in FIG. 5 represent 3 replicates from n different animals: non-diabetic controls, n=6; non-diabetic treated with 50 mg/L LR-90, n=5; diabetic control, n=3. For diabetic rats treated with varying doses of LR-90: 2.5 mg/L, n=4; 10 mg/L, n=5; 25 mg/L, n=6; 50 mg/L, n=8.\nCEdG was concentrated from urine by solid phase extraction. A 1 ml strata-X-C cartridge was pre-conditioned by the sequential addition of 1 ml MeOH/CH3CN (1:1) followed by 2×1 ml 2% H3PO4. Then ^15N5-CEdG was added as an internal standard (final concentration 5 μg/ml), the sample was acidified with 10 μl of 86% H3PO4, and finally 0.4 mL of urine was introduced via suction filtration. The cartridge was then washed with sequential additions of 1 ml 0.1% H3PO4 and 1 ml MeOH and then dried under vacuum for 1 minute. Finally, CEdG/^15N5-CEdG containing fractions were eluted from the cartridge with 1 mL 3% NH4OH in MeOH:CH3CN (2:8 v/v). The eluent was evaporated to dryness in a centrifugal concentrator and reconstituted with 200 μl 0.1% formic acid prior to LC-MS/MS injection.\nCEdG quantification was performed using LC-MS/MS. Measurement of 8-oxo-dG was performed as previously described.^19 CEdG and ^15N5-CEdG (internal standard) were synthesized and purified. Measurements were performed using an Agilent 1100 Capillary LC system (Agilent Technologies, Palo Alto, Calif.) in line with a Micromass Quattro Ultima Triple Quadrupole Mass Spectrometer (Micromass, Beverly, Mass.) operating in positive-ion mode. […] The mass transitions monitored for CEdG and ^15N5-CEdG were 340.3→224.3 and 345.4→229.4 respectively. […] The lower limit of quantitation for CEdG, defined as a peak height of ≥5× baseline noise, was 0.1 ng/ml in the starting solution or 0.2 pg on column.\nA diabetic animal model was used to examine the relationship between glycemic status and CEdG levels. […] 8-oxo-dG was also measured as an indicator of oxidative stress in normal and diabetic rats; however, excreted 8-oxo-dG in diabetic animals was not statistically different (P>0.05) from controls."}, "[3]": {"system": "CEdG levels from tissue-extracted DNA", "assay": "CEdG in tissue-extracted DNA from organs of Zucker fatty rats", "assay_type": "in vivo, Zucker rat", "details": "liver, pancreas and kidney, after LR-90 treatment", "description": "as §1, with “Separation was achieved isocratically using a mobile phase of 6% MeOH, 0.1% acetic acid in water.” left out\nThe Zucker rat is a morbidly obese, hyperinsulinemic model for Type 2 diabetes resulting from homozygous knockout of the leptin receptor. In order to determine whether elevated circulating glucose in the Zucker rat correlates with increased tissue DNA glycation, CEdG levels from tissue-extracted DNA were measured in selected organs and compared to lean controls and to Zucker rats treated with the glycation inhibitor LR-90. […]"}, "physchem": {"assay": "physchem", "details": "buffer, pH 2.4, half-life for depurination", "method": "as §2, §3"}},
  "data": [
    {"smiles": "CC(Nc1nc2c(ncn2[C@H]2C[C@H](O)[C@@H](CO)O2)c(=O)[nH]1)C(=O)O", "note": "(single isomer, unassigned) [CEdG-A, N^2-(1-carboxyethyl)-2′-deoxyguanosine]", "values": [
      {"measurement": "half-life at 1.25 mM", "setting": "[1]; 1 M acetic acid solution, pH 2.4, half-life for depurination, 1 M AcOH (pH 2.4), HPLC", "value": "~12.5", "unit": "h"},
      {"measurement": "racemization of the sidechain stereocenter / interconversion of isomers", "setting": "[1]", "value": "no interconversion"}
    ]},
    {"smiles": "CC(Nc1nc2c(ncn2[C@H]2C[C@H](O)[C@@H](CO)O2)c(=O)[nH]1)C(=O)O", "note": "(single isomer, unassigned) [CEdG-B, N^2-(1-carboxyethyl)-2′-deoxyguanosine]", "values": [
      {"measurement": "half-life for depurination", "setting": "[1]; 1 M AcOH (pH 2.4), HPLC", "value": "~8.33", "unit": "h"},
      {"measurement": "racemization of the sidechain stereocenter / interconversion of isomers", "setting": "[1]", "value": "no interconversion"}
    ]},
    {"smiles": "N=C(N)NN", "note": "[AG, aminoguanidine]", "values": [
      {"measurement": "measured CEdG levels after mock proteolysis and hydrolysis with scavenger", "setting": "calf thymus DNA; 10 mM AG in two aliquots prior to mock lysis and hydrolysis/dephosphorylation, 80-100 CEdG/10^6 guanines without scavenger", "value": "drop in measured CEdG levels"},
      {"measurement": "adduct levels after scavenger addition prior to sample processing", "setting": "calf thymus DNA; 10 mM AG, hydrolysis/dephosphorylation only, 60-66 CEdG/10^6 dG without scavenger", "value": "45-50 CEdG/10^6 guanines"}
    ]},
    {"smiles": "CC(C)(S)[C@@H](N)C(=O)O", "note": "[D-penicillamine]", "values": [
      {"measurement": "artifactual CEdG formation", "setting": "[2]", "value": "artifactual formation was inhibited"}
    ]},
    {"smiles": "CC(C)(Oc1ccc(NC(=O)Nc2ccc(Cc3ccc(NC(=O)Nc4ccc(OC(C)(C)C(=O)O)cc4)c(Cl)c3)cc2Cl)cc1)C(=O)O", "note": "[LR-90]", "values": [
      {"measurement": "adduct level in urine", "setting": "urinary CEdG; diabetic rats, LR-90 25 mg/L", "value": "comparable to that of non-diabetic animals"},
      {"measurement": "decrease in CEdG titer", "setting": "urinary CEdG; diabetic rats, LR-90 ad libitum 2.5 mg/L, 24 hr urine", "value": 2.3, "unit": "fold"},
      {"measurement": "reduction in CEdG with increasing concentrations", "setting": "urinary CEdG; diabetic rats, LR-90 ad libitum 2.5-50 mg/L, urine", "value": "dose dependent reduction in CEdG"},
      {"measurement": "effect on CEdG levels in normal controls", "setting": "urinary CEdG; non-diabetic rats, LR-90 at doses up to 50 mg/L", "value": "no significant effect"},
      {"measurement": "change of CEdG levels in tissue DNA", "setting": "[3]", "value": "net lowering of CEdG levels"}
    ]},
    {"smiles": "Nc1nc2c(ncn2[C@H]2C[C@H](O)[C@@H](CO)O2)c(=O)[nH]1", "note": "[dG, 2′-deoxyguanosine]", "values": [
      {"measurement": "half-life at 1.25 mM", "setting": "physchem", "value": 7.33, "unit": "h"}
    ]}
  ]
}
